What was measured:
Assay type in all cases: in vivo, rat
male Sprague-Dawley rats [1] = assay: Monocrotaline pulmonary hypertension model, treatment from day 14: right ventricular and systemic pressure
Procedure: (§1) 1 monocrotaline (60 mg/kg; Sigma) was administered to rats on the day of the experiment. For this purpose, the substance was dissolved in 0.5 molar hydrochloric acid and the pH value was then adjusted to 7.4 with 0.5 molar sodium hydroxide solution. The solution was administered to male Sprague-Dawley rats as a single subcutaneous injection in a dose of 60 mg/kg. The same volume of isotonic saline solution was administered to control animals.
(§2) The dosage specifications in this case relate to the free base of the substances. The substances were used as hydrogenmaleate salt or free base. They were introduced into distilled water in the presence of traces of ascorbic acid and administered by oesophageal tube in the morning and in the evening in a volume of 2 mL. The same quantity of water was administered to control animals.
(§3) On day 28 of the experiment, 2 hours after the last administration of the substance, the animals were put under general anesthesia using pentobarbital. Then, a tracheostomy was performed on the animals and the animals were respirated at 10 ml/kg and a frequency of […] (SAR830A/P; IITC). Anesthesia was maintained by inhalation of isoflurane.
The mean arterial pressure and the right ventricular systolic blood pressure were determined. The systemic arterial pressure was measured using a Millar catheter in the left carotid artery. A millar catheter with a pressure sensor (Millar Instruments, model SPR-534) was inserted through the right jugular vein and pushed up to the right ventricle of the heart and used for measuring the right ventricular pressure (RVSP). The signal was amplified by means of a HSE coupler Series 500 and supplied to a registration unit for evaluation.

male Sprague-Dawley rats [2] = assay: Monocrotaline pulmonary hypertension model, treatment from day 14: hydroxyproline (collagen) content of the lung; conditions: monocrotaline 60 mg/kg s.c. day 1; 0.25 mg/kg Lisuride bid or 2.5 mg/kg Terguride bid, days 14-28; right lung day 28; averages ± SEM, N=6
Procedure: as §1, §2
After the pressure measurements had been performed, the rats were perfused with physiological saline solution. The right lung was removed, deep-frozen and processed for determining the collagen content. To this end, the tissue was first homogenized and analyzed, drawing on the method by Berg (Meths Enzymol. 82, 372 (1982)). […] The color complex created was measured photometrically at 560 nm and the hydroxprolin content of the samples was determined by means of a calibration curve. […]

male Sprague-Dawley rats [3] = assay: Monocrotaline pulmonary hypertension model, treatment days 1-28: muscularization of arterial capillary vessels of the lung; conditions: 0.4 mg/kg Terguride bid (table), lung arterial capillary vessels 20-50 μm, averages ± SD, N=4
Procedure: as §1
(§4) […] Terguride was introduced into distilled water in the presence of traces of ascorbic acid and administered by oesophageal tube in the morning and in the evening in a volume of 2 mL. The same quantity of physiological saline solution was administered to control animals.
The lungs were removed, fixated in formalin and embedded in paraffin. Paraffin sections were obtained and an immunohistochemical double staining was carried out according to standard protocols. Smooth muscle cells of the vessels were stained with an antibody against actin and the endothelium was stained by means of antibodies against von Willebrand factor. […] The vessels were subdivided into 3 categories: non-muscularized vessels with 20%, partially muscularized vessels with >20%, but <70%, and fully muscularized vessels with >70% lining of the cross-section of the vessel with smooth muscle cells.

male Sprague-Dawley rats [4] = assay: Monocrotaline pulmonary hypertension model, treatment days 1-28: right ventricular hypertrophy; conditions: 0.4 mg/kg Terguride bid (table), dry weights, averages ± SD, N=4
Procedure: as §1, §4
After the pressure measurements had been performed, the rats were perfused with physiological saline solution. The heart was removed and prepared by dissection of the right ventricle, the septum as well as the left ventricle of each heart. The tissue preparations were freeze-dried and the dry weights were then determined by weighing out. For each individual animal, the quotient: weight of the right ventricle/weight of the left ventricle and septum (RV/LV+S) was determined from these animals as a measure for right ventricular hypertrophy.

male Sprague-Dawley rats [5] = assay: Monocrotaline pulmonary hypertension model, treatment days 1-28: RVSP and SAP; conditions: monocrotaline 60 mg/kg s.c. day 1, 0.4 mg/kg Terguride bid (table), measured day 28, averages ± SD, N=4
Procedure: as §1, §4, §3
The mean arterial pressure and the right ventricular systolic blood pressure were determined. The systemic arterial pressure was measured using a Millar catheter in the left carotid artery. […]

[6] = monocrotaline 60 mg/kg s.c. day 1, 0.25 mg/kg Lisuride bid or 2.5 mg/kg Terguride bid by oesophageal tube, days 14-28, measured day 28, averages ± SEM, N=6

| SMILES | RVPsys (systolic pressure in the right ventricle) (male Sprague-Dawley rats [1]; [6]) | Increase in pressure in the right ventricle (in words) (male Sprague-Dawley rats [1]; monocrotaline rats, therapy started 14 days after monocrotaline) | Hydroxyproline content of the lung (male Sprague-Dawley rats [2]) | Proportion of fully muscularized vessel (male Sprague-Dawley rats [3]) | Proportion of non-muscularized vessel (male Sprague-Dawley rats [3]) | Proportion of partially muscularized vessel (male Sprague-Dawley rats [3]) | SAP (systemic arterial pressure) (male Sprague-Dawley rats [1]; [6]) | RV/LV + S (weight of right ventricle vs. weight of left ventricle and septum) (male Sprague-Dawley rats [4]) | RVSP (right ventricular systolic pressure) (male Sprague-Dawley rats [5]) | SAP (systemic arterial pressure) (male Sprague-Dawley rats [5]) |
| --- | --- | --- | --- | --- | --- | --- | --- | --- | --- | --- |
| CCN(CC)C(=O)N[C@H]1C=C2c3cccc4[nH]cc(c34)C[C@H]2N(C)C1 [Lisuride, 3-(9,10-didehydro-6-methylergoline-8alpha-yl)-1,1-diethylurea] | 43 ± 7 mmHg | reduces | 3.3 ± 0.8 ug/g protein |  |  |  |  |  |  |  |
| CCN(CC)C(=O)N[C@H]1C[C@@H]2c3cccc4[nH]cc(c34)C[C@H]2N(C)C1 [Terguride, (+)-1,1-diethyl-3-(6-methyl-8α-ergolinyl)-urea] | 39 ± 3 mmHg |  | 2.7 ± 1.2 ug/g protein | 21.3 ± 12.6% | 1.9 ± 1.6% | 57.8 ± 14.6% | 111 ± 7 mmHg | 0.33 ± 0.08 | 36.4 ± 3.6 mmHg | 97.5 ± 15.2 mmHg |
